Test results published in patent publication US20050106639A1, “Method for quantification of AKT protein expression” (Ventana Medical Systems, Inc., priority 2000, published 2005).

Legend:
Assay type in all cases: cell-based
AKT-1 = test: Immunoprecipitation and anti-phospho-Akt Western blot, AKT-1
Method: (§1) MDA-MB-435 and MDA-MB-435/HER-2 cells were obtained from Dr. Yu at the UTMD Anderson Cancer Center, Houston, Tex. Cells were grown in RPMI 1640 supplemented as above in 8% CO2 at 37° C. Western blotting was done as follows. Cells were lysed in lysis buffer (50 mM Tris-HCl, pH 7.4, 150 mM sodium chloride, 1 mM EDTA, 1% Nonidet P-40, 1 mM sodium orthovanadate, 1 mM sodium fluoride, 1 mM phenylmethylsulfonyl fluoride, 2 ug/ml pepstatin, 2 ug/ml leupeptin, 2 ug/ml aprotinin), centrifuged at 4° C. for 5 min at 6500 g, and protein concentration was determined with a BioRad Protein Assay Kit (BioRad, Hercules, Cailf.). Proteins were separated by electrophoresis using a Bis-Tris NuPAGE system with 1× MOPS running buffer (Novex, San Diego, Cailf.) and transferred to Hybond C-extra membrane (Amersham Pharmacia Biotech, Piscataway, N.J.). Membranes were blocked with non-fat dry milk, incubated with the appropriate antibodies, washed with PBS (phosphate buffered saline) and incubated with horseradish peroxidase-conjugated secondary antibody. […]
(§2) The activated (phosphorylated) state of total AKT (AKT-1 plus AKT-2) in cells over-expressing HER-2/neu was measured to study the functional significance of c-akt in HER-2/neu over-expressing cells and cancers. […] Activated AKT was determined by antibodies that specifically recognize the phosphorylated state of AKT protein. […]

AKT-2 = test: Immunoprecipitation and anti-phospho-Akt Western blot, AKT-2
Method: as §1, §2

[1] = system: total AKT (AKT-1 plus AKT-2); test: Western blot of activated (phosphorylated) total AKT in HER-2/neu over-expressing cells; conditions: SKBR3, BR474, AU565 cells, Heregulin 10 ng/ml or Herceptin 20 mg/ml
Method: as §1, §2

[2] = SKBR3, BR474, AU565 cells, Heregulin 10 ng/ml or Herceptin 20 mg/ml, Western blot

Question: Which results are given for Heregulin?
Answer: AKT-1 phosphorylation (AKT-1; [2]): increased; phosphorylated state of AKT-1 (AKT-1; exposure for 3 days): down-regulation; level of AKT-2 phosphorylation after treatment (AKT-2; [2]): remained high; phosphorylated state of AKT-2 (AKT-2; exposure for 3 days): did not affect; phosphorylation of total AKT [1]: increased
